± gives the uncertainty stated by the source.
Assays:
[1] = tested on: KeratinoSens (HaCaT ARE-luciferase) cells; assay: AC50 of Nrf2/ARE luciferase induction; higher = less potent; details: exposure time: 24 h
[2] = tested on: KeratinoSens (HaCaT ARE-luciferase) cells; assay: efficacy of ARE luciferase induction relative to DMSO (% activity over DMSO); higher = stronger induction; details: exposure time: 24 h
[3] = tested on: KeratinoSens (HaCaT ARE-luciferase) cells; assay: cytotoxicity AC50 (CellTiter-Fluor viability); higher = less cytotoxic; details: exposure time: 24 h
THP-1 = assay: efficacy of IL-8 induction relative to DMSO (% activity); higher = stronger induction; details: exposure time: 18 h
[4] = tested on: cysteine peptide Ac-RFAACAA-COOH; assay: efficacy of cysteine peptide change (negative = depletion) (% activity); higher = less depletion; details: incubation time: 24 h
[5] = tested on: lysine peptide Ac-RFAAKAA-COOH; assay: efficacy of lysine peptide change (negative = depletion) (% activity); higher = less depletion; details: incubation time: 24 h
[6] = tested on: cysteine peptide Ac-RFAACAA-COOH; assay: AC50 of cysteine peptide concentration-response (direction given by sign of efficacy); higher = less potent; details: incubation time: 24 h

Structure (SMILES) | AC50 of Nrf2/ARE luciferase induction [1] [µM] | efficacy of ARE luciferase induction [2] | cytotoxicity AC50 [3] [µM] | efficacy of IL-8 induction (THP-1) | efficacy of cysteine peptide change [4] | efficacy of lysine peptide change [5] | AC50 [6] [µM]
CCN(CC)CCNc1ccc(CNC=O)c2sc3ccc(OC)cc3c(=O)c12 | 63.9 | 189 ± 110 | 59.5 ± 26 | 3.79 ± 6.6 |  |  | 
COc1cc(C(C)C)c2c(c1)S(=O)(=O)N(COc1cc(=O)n3cccc(OCCN4CCCCC4)c3n1)C2=O | 12.6 | 509 ± 320 |  | 54.6 ± 30 | 17.7 ± 15 | -2.72 ± 25 | 
O=C(NS(=O)(=O)/C=C/c1ccccc1)c1ccc(F)cc1Cl | 38.7 | 82.9 ± 22 |  | 0 | 5 ± 8.7 | 67 ± 6.6 | 
O=C(NS(=O)(=O)/C=C/c1cccs1)c1ccc(F)cc1Br | 14.1 | 56.2 ± 110 |  | 4.43 ± 7.7 | -6.04 ± 5.4 | 49.7 ± 18 | 
Nc1ccccc1N [1,2-Phenylenediamine*] | 34.4 | 88 ± 31 |  | 4.93 ± 5.2 | -90.9 ± 5 | 7.79 ± 12 | 1.06 ± 0.49
O=C(CCl)CCl [1,3-Dichloropropanone] | 40.9 | 84.2 ± 64 |  | 22.5 ± 6.2 | -107 ± 9.9 | -12.5 ± 16 | 35.6 ± 4.1
Nc1ccc(N)cc1 [1,4-Benzenediamine] | 39.8 | 54.5 ± 20 |  | 19.1 ± 5.7 | -107 ± 20 | 61 ± 17 | 9.58 ± 2.8
C=CC(=O)OCCCCOC(=O)C=C [1,4-Butanediol diacrylate] | 35.5 | 336 ± 19 | 43 ± 2.8 | 16.2 ± 1.7 |  |  | 
Cc1ccc2c(c1N)C(=O)c1ccccc1C2=O [1-Amino-2-methylanthraquinone] | 37.8 | 55.7 ± 35 |  | 0 | -101 ± 4.8 | -8.55 ± 7.6 | 24.3 ± 3.4
C/C=C/C=C/C=O [2,4-Hexadienal] | 73.7 | 427 ± 46 |  | 12.8 ± 12 | -129 ± 9.8 | -110 ± 23 | 17 ± 5
Cc1ccc(O)c(-n2nc3ccccc3n2)c1 [2-(2H-Benzotriazol-2-yl)-4-methylphenol] | 22.4 | 95.5 ± 93 |  | 0 | 3.66 ± 6.3 | -3.82 ± 16 | 
Nc1nnc(-c2ccc([N+](=O)[O-])o2)o1 [2-Amino-5-(5-nitro-2-furyl)-1,3,4-oxadiazole] | 26.2 | 45.2 ± 31 |  | 4.08 ± 7.1 | -4.29 ± 3.9 | -11.9 ± 11 | 
O=C(Nc1ccccc1)c1cc([N+](=O)[O-])ccc1Cl [2-Chloro-5-nitro-N-phenylbenzamide] | 40 | 92.4 ± 39 |  | 10.4 ± 3 | -15.7 ± 6.5 | 58.4 ± 17 | 
Cc1ccc2c(c1[N+](=O)[O-])C(=O)c1ccccc1C2=O [2-Methyl-1-nitroanthraquinone] | 34.8 | 81.9 ± 8.7 |  | 12 ± 10 | -26 ± 7.3 | 0.29 ± 19 | 
Nc1ccc(Cl)cc1N [4-Chloro-1,2-diaminobenzene*] | 13.7 | 70 ± 21 |  | 10.3 ± 2.3 | -99.1 ± 6 | -6.76 ± 18 | 5.4 ± 2.3
C=CC(=O)OCCOC(=O)CCC(=O)O [4-[2-(Acryloyloxy)ethoxy]-4-oxobutanoic acid] | 61.3 | 87.4 ± 29 |  | 0 | -111 ± 7.3 | -2.94 ± 13 | 34.1 ± 14
C[C@]12C=CC3=C4CCC(=O)C=C4CC[C@H]3[C@@H]1CC[C@@H]2O [17beta-Trenbolone] | 39.1 | 189 ± 53 | 50.9 ± 20 | 32.2 ± 36 |  |  | 
CCOCN(C(=O)CCl)c1c(C)cccc1CC [Acetochlor] | 53.6 | 98.8 ± 68 | 55.2 ± 14 | 8.32 ± 8.4 | 11.4 ± 11 | 79.9 ± 12 | 
Cc1c(C)n(CCN(C)C)c2ccc(C(=O)OCCN(C)C)cc12 [Amindocate] | 29.8 | 96.2 ± 38 | 28.3 ± 9.3 | -1.77 ± 3.1 | 9.57 ± 11 | 58.5 ± 9.6 | 
COc1ccc(-c2cc(=S)ss2)cc1 [Anethole trithione] | 22 | 96.9 ± 78 | 34.2 ± 2.2 | 38.6 ± 10 | -84.1 ± 12 | -0.11 ± 7.8 | 
O=C(Nc1cccc(Cl)c1)OCC#CCCl [Barban] | 35.5 | 101 ± 30 | 55.2 ± 14 | 34.1 ± 7.5 | -52.5 ± 14 | 33.7 ± 4.6 | 
c1ccc2cc3c(ccc4ccccc43)cc2c1 [Benz(a)anthracene] | 40 | 126 ± 33 |  | 32.1 ± 4.5 | -97.8 ± 2.9 | -36.8 ± 14 | 12.2 ± 1.7
O=C(OCc1ccccc1)c1ccc(O)cc1 [Benzylparaben] | 12.1 | 52.2 ± 9.2 |  | 0 | 0 | 90.8 ± 51 | 
CCCCOCN(C(=O)CCl)c1c(CC)cccc1CC [Butachlor] | 70.8 | 324 ± 31 | 41.4 ± 2.8 | 22.1 ± 11 | -24.1 ± 21 | 2.3 ± 11 | 
Oc1ccc2ccccc2c1N=Nc1ccccc1 [C.I. Solvent Yellow 14] | 28.2 | 49.8 ± 19 |  | 5.32 ± 9.2 | -94.7 ± 4 | -31.1 ± 6.5 | 10.8 ± 3.5
[Cl][Cd][Cl] [Cadmium II chloride] | 18.9 | 146 ± 94 | 37.3 ± 6.7 | 19.4 ± 2.2 | 11.2 ± 30 | 4.14 ± 11 | 
Cl/C=C\C[N+]12CN3CN(CN(C3)C1)C2 [Chloroallyl methenamine chloride] | 73.7 | 1290 ± 60 |  | 6.91 ± 6.8 | -102 ± 6.1 | -14.5 ± 14 | 19.6 ± 4.8
O=c1cc(-c2ccccc2)oc2cc(O)cc(O)c12 [Chrysin] | 53.6 | 210 ± 48 |  | 13.2 ± 3.6 | -10.9 ± 9.8 | 22 ± 20 | 
Cc1cc(C2CC2)nc(Nc2ccccc2)n1 [Cyprodinil] | 35.1 | 41.8 ± 10 |  | 2.31 ± 4 | 6 ± 10 | 57 ± 8.8 | 
C[C@]12CC[C@H](O)C[C@H]1CC[C@@H]1[C@@H]2C[C@@H](O)[C@]2(C)[C@@H](C3=CC(=O)OC3)CC[C@]12O [Digoxigenin] | 5.7 | 600 ± 260 | 4.65 ± 1.6 | 21.1 ± 4.1 | 2.17 ± 3.8 | 68.2 ± 22 | 
